In test [1] the target is T1, AR-VP16 (Homo sapiens, UniProt P10275).
T1 sequence (P10275 560-920 limits assumed): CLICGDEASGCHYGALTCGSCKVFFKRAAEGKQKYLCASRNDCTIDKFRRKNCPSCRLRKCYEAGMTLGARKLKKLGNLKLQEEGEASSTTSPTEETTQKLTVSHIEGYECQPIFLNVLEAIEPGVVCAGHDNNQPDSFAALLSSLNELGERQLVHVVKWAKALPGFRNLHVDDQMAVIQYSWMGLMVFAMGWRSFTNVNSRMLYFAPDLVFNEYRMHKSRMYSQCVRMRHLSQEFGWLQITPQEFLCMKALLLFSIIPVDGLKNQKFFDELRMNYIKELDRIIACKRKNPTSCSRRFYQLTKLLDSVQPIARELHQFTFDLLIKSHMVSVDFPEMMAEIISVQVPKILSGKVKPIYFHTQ
As to the kind of experiment: AR-VP16 DNA Binding Assay, agonist mode (HepG2 cells). As to conditions: Emax >20x DMSO control = agonist. It is filed as cell-based.

For test [2], the target named is T1, AR-VP16. As to the kind of experiment: AR-VP16 DNA Binding Assay, antagonist mode (HepG2 cells, 0.1 nM R1881). It is filed as cell-based. The method in brief: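 Transfected HepG2 cells expressing AR-VP16 received serially diluted compound in charcoal-stripped-serum RPMI the day after transfection, with 0.1 nM R1881 (final) added only for antagonist testing. After 48 h, cells were lysed for measurement.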

Here are results for 14 compounds from US9108944B2, “Androgen receptor modulators and uses thereof” (ARAGON PHARMACEUTICALS, INC., priority 2010, dated 2015).

For `CNC(=O)c1ccc(N2C(=S)N(c3ccc(C#N)c(C(F)(F)F)n3)C(=O)C23CCC3)cc1F` [Compound 35, 4-(7-(5-Cyano-6-(trifluoromethyl)pyridin-2-yl)-8-oxo-6-thioxo-5,7-diazaspiro[3.4]octan-5-yl)-2-fluoro-N-methylbenzamide], the “ARVP16 DNA Binding Assay (Agonist mode): Agonist?” value (shortened to “ARVP16 DNA Binding Assay”) in test [1] was “No (Agonist defined as a compound whose Emax in the ARVP16 DNA Binding Assay (Agonist mode) is >20x DMSO control)”. Besides, the IC50 in test [2] was greater than 1 µM.
As to `N#Cc1ncc(N2C(=O)C3(CCC3)N(c3ccc(OCCc4ccccn4)c(F)c3)C2=S)cc1C(F)(F)F` [Compound 130, 5-(5-(3-Fluoro-4-(2-(pyridin-2-yl)ethoxy)phenyl)-8-oxo-6-thioxo-5,7-diazaspiro[3.4]octan-7-yl)-3-(trifluoromethyl)picolinonitrile], the “ARVP16 DNA Binding Assay” value in test [1] is given as “No (Agonist defined as a compound whose Emax in the ARVP16 DNA Binding Assay (Agonist mode) is >20x DMSO control)”. In test [2], this compound yielded an IC50 of less than 1 µM.
As to `N#Cc1ncc(N2C(=O)C3(CCC3)N(c3ccc(C(=O)Nc4ccncc4)c(F)c3)C2=S)cc1C(F)(F)F` [Compound 263, 4-(7-(6-Cyano-5-(trifluoromethyl)pyridin-3-yl)-8-oxo-6-thioxo-5,7-diazaspiro[3.4]octan-5-yl)-2-fluoro-N-(pyridin-4-yl)benzamide], the “ARVP16 DNA Binding Assay” value in test [1] is “Yes (Agonist defined as a compound whose Emax in the ARVP16 DNA Binding Assay (Agonist mode) is >20x DMSO control)”. The IC50 in test [2] was less than 1 µM.
For the compound `CN1CCN(Cc2ccc(N3C(=S)N(c4cnc(C#N)c(C(F)(F)F)c4)C(=O)C34CCC4)cc2)CC1` [Compound 93, 5-(5-(4-((4-Methylpiperazin-1-yl)methyl)phenyl)-8-oxo-6-thioxo-5,7-diazaspiro[3.4]octan-7-yl)-3-(trifluoromethyl)picolinonitrile], the “ARVP16 DNA Binding Assay” value in test [1] is listed as “No (Agonist defined as a compound whose Emax in the ARVP16 DNA Binding Assay (Agonist mode) is >20x DMSO control)”. For the same compound, the IC50 in test [2] was greater than 1 µM.
In the case of `Cc1ccc(N2C(=S)N(c3cnc(C#N)c4ccccc34)C(=O)C23CCC3)cc1` [Compound 65, 4-(8-Oxo-6-thioxo-5-(p-tolyl)-5,7-diazaspiro[3.4]octan-7-yl)isoquinoline-1-carbonitrile], the “ARVP16 DNA Binding Assay” value in test [1] was “Yes (Agonist defined as a compound whose Emax in the ARVP16 DNA Binding Assay (Agonist mode) is >20x DMSO control)”. In test [2], this compound displayed an IC50 of less than 1 µM.
Take `N#Cc1ncc(N2C(=O)C3(CCC3)N(c3ccc(OCCCCOCc4ccccc4)c(F)c3)C2=S)cc1C(F)(F)F` [Compound 136, 5-(5-(4-(4-(Benzyloxy)butoxy)-3-fluorophenyl)-8-oxo-6-thioxo-5,7-diazaspiro[3.4]octan-7-yl)-3-(trifluoromethyl)picolinonitrile]: the “ARVP16 DNA Binding Assay” value in test [1] is reported as “No (Agonist defined as a compound whose Emax in the ARVP16 DNA Binding Assay (Agonist mode) is >20x DMSO control)”. Moreover, in test [2], the IC50 was less than 1 µM.
As for `Cc1cc(N2C(=O)C3(CCC3)N(c3ccc(O)cc3)C2=S)cnc1C#N` [Compound 77, 5-(5-(4-hydroxyphenyl)-8-oxo-6-thioxo-5,7-diazaspiro[3.4]octan-7-yl)-3-methylpicolinonitrile], the “ARVP16 DNA Binding Assay” value in test [1] is listed as “No (Agonist defined as a compound whose Emax in the ARVP16 DNA Binding Assay (Agonist mode) is >20x DMSO control)”. The IC50 in test [2] is greater than 1 µM.
In the case of `CN1CCN(CCOc2ccc(N3C(=S)N(c4cnc(C#N)c(C(F)(F)F)c4)C(=O)C34CCC4)cc2F)CC1` [Compound 149, 5-(5-(3-Fluoro-4-(2-(4-methylpiperazin-1-yl)ethoxy)phenyl)-8-oxo-6-thioxo-5,7-diazaspiro[3.4]octan-7-yl)-3-(trifluoromethyl)picolinonitrile], the “ARVP16 DNA Binding Assay” value in test [1] is recorded as “No (Agonist defined as a compound whose Emax in the ARVP16 DNA Binding Assay (Agonist mode) is >20x DMSO control)”. Besides, in test [2], the IC50 was less than 1 µM.
The like results for `N#Cc1ncc(N2C(=O)C3(CCC3)N(c3ccc(F)c(C(=O)NCCCN4CCCC4)c3)C2=S)cc1C(F)(F)F` [Compound 252, 5-(7-(6-Cyano-5-(trifluoromethyl)pyridin-3-yl)-8-oxo-6-thioxo-5,7-diazaspiro[3.4]octan-5-yl)-2-fluoro-N-(3-(pyrrolidin-1-yl)propyl)benzamide] were, in that order, “No (Agonist defined as a compound whose Emax in the ARVP16 DNA Binding Assay (Agonist mode) is >20x DMSO control)” and less than 1 µM.
The corresponding values for `CN1CCN(CCCNC(=O)c2ccc(N3C(=S)N(c4cnc(C#N)c(C(F)(F)F)c4)C(=O)C34CCC4)cc2F)CC1` [Compound 269, 4-(7-(6-Cyano-5-(trifluoromethyl)pyridin-3-yl)-8-oxo-6-thioxo-5,7-diazaspiro[3.4]octan-5-yl)-2-fluoro-N-(3-(4-methylpiperazin-1-yl)propyl)benzamide] are “No (Agonist defined as a compound whose Emax in the ARVP16 DNA Binding Assay (Agonist mode) is >20x DMSO control)” and less than 1 µM.
In the case of `CCOC(=O)CCNC(=O)c1ccc(N2C(=S)N(c3cnc(C#N)c(C(F)(F)F)c3)C(=O)C23CCC3)cc1F` [Compound 246, Ethyl 3-(4-(7-(6-cyano-5-(trifluoromethyl)pyridin-3-yl)-8-oxo-6-thioxo-5,7-diazaspiro[3.4]octan-5-yl)-2-fluorobenzamido)propanoate], the “ARVP16 DNA Binding Assay” value in test [1] is reported as “No (Agonist defined as a compound whose Emax in the ARVP16 DNA Binding Assay (Agonist mode) is >20x DMSO control)”. Besides, in test [2], the IC50 is greater than 1 µM.
On to `N#Cc1ncc(N2C(=O)C3(CCC3)N(c3ccc(C(=O)NCc4ccco4)c(F)c3)C2=S)cc1C(F)(F)F` [Compound 266, 4-(7-(6-Cyano-5-(trifluoromethyl)pyridin-3-yl)-8-oxo-6-thioxo-5,7-diazaspiro[3.4]octan-5-yl)-2-fluoro-N-(furan-2-ylmethyl)benzamide], for which the “ARVP16 DNA Binding Assay” value in test [1] is given as “No (Agonist defined as a compound whose Emax in the ARVP16 DNA Binding Assay (Agonist mode) is >20x DMSO control)”. The compound also registered an IC50 in test [2] of less than 1 µM.
Consider `CN1CCN(CCCOc2cc(N3C(=S)N(c4cnc(C#N)c(C(F)(F)F)c4)C(=O)C34CCC4)ccc2F)CC1` [Compound 167, 5-(5-(4-Fluoro-3-(3-(4-methylpiperazin-1-yl)propoxy)phenyl)-8-oxo-6-thioxo-5,7-diazaspiro[3.4]octan-7-yl)-3-(trifluoromethyl)picolinonitrile], for which the “ARVP16 DNA Binding Assay” value in test [1] was “No (Agonist defined as a compound whose Emax in the ARVP16 DNA Binding Assay (Agonist mode) is >20x DMSO control)”. The compound further registered an IC50 in test [2] greater than 1 µM.
The corresponding values for `CN1CCN(CCOc2ccc(N3C(=S)N(c4cnc(C#N)c(C(F)(F)F)c4)C(=O)C34CCC4)cc2)CC1` [Compound 178, 5-(5-(4-(2-(4-Methylpiperazin-1-yl)ethoxy)phenyl)-8-oxo-6-thioxo-5,7-diazaspiro[3.4]octan-7-yl)-3-(trifluoromethyl)picolinonitrile] are “No (Agonist defined as a compound whose Emax in the ARVP16 DNA Binding Assay (Agonist mode) is >20x DMSO control)” and less than 1 µM.

Broadly, the IC50 is the point on the concentration scale where inhibition reaches its midpoint.
